Data taken from PMC8151276, “An Integrated Approach toward NanoBRET Tracers for Analysis of GPCR Ligand Engagement” (Molecules, 2021).

Biological target: T1, F2RL1 (Homo sapiens, UniProt P55085)
T1 construct: purchased Promega (in-house HiBiT-GPCR construct library, NanoBRET)
T1 sequence (P55085 26-397): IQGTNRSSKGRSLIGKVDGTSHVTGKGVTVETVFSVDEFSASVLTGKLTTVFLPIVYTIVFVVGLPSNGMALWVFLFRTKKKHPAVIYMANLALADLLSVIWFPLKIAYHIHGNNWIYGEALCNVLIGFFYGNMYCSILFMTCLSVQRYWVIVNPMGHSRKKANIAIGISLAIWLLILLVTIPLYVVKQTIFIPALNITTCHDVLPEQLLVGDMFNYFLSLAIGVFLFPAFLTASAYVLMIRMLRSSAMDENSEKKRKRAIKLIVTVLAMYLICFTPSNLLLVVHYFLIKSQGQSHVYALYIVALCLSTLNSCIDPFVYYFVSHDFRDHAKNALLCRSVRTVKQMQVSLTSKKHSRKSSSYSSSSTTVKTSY
Experiment: NanoBRET screen HiBiT-F2RL1 in HEK293
Assay type: binding
Description: Each tracer candidate was screened across the entire library of HiBiT-GPCR constructs using NanoBRET as the detection modality. As depicted in Figure 4A, the specificity of interactions was evaluated through decrease in BRET due to competitive displacement of a bound tracer by excess parental compound. Each tracer was analyzed for binding to each HiBiT-GPCR fusion in the absence and in the presence of competing parental compound. Briefly, HEK293 cells were transfected with HiBiT-GPCR constructs diluted into promoterless DNA to reduce expression and maximize translocation to the cell surface. Each tracer candidate was then screened at concentrations of 1 μM and 0.1 μM across cells expressing these fusions. Cells were treated for 1.5 h with tracer either alone or in the presence of 20 μM competing parental compound (i.e., control). BRET was measured upon addition of purified LgBiT and subsequent complementation with HiBiT genetically fused to a GPCR. The specificity of interactions was assessed through a decrease in BRET signal due to competitive displacement of the bound tracer. To further gauge the robustness of these interactions, the fold response over the control (i.e., BRETtracer/BRETcontrol) was calculated. We chose a 1.5-fold response, which translates to ≥7-fold signal over noise as the minimal threshold required to score an interaction as positive. […]. Below we highlight the screening results obtained for our exemplary fluorescent tracers based on Clozapine, Amitriptyline and AZD1283.
HiBiT-GPCR DNA constructs were diluted in 10 mM Tris pH 8 to a final concentration of 0.01 μg/μL, arrayed in 96-well plates and stored at −20 °C. For transfection, HEK293 cells were suspended in Opti-MEM (without phenol red) supplemented with 2% fetal bovine serum (Seradigm) and 100 units/mL penicillin–streptomycin (Gibco) at a final concentration of 220,000 cells/mL and dispensed into white 96-well plates at 90 μL/well. Subsequent transfections and screens were carried using an Agilent Bravo Automated Liquid Handling Platform. First, the 96-well HiBiT DNA arrays were diluted 25-fold in Opti-MEM (without serum or phenol red) to a final concentration of 0.0004 μg/μL and 20 μL of the diluted DNAs were transferred into new 96-well plates. Next, promoterless carrier DNA (1 μg/μL) was diluted 25-fold (0.04 μg/μL) and then dispensed into the diluted arrays at 20 μL/well. Following brief mixing, Viafect transfection reagent (Promega) diluted 16-fold into Opti-MEM was dispensed into the plates at 40 μL/well. After mixing by pipetting, plates were incubated for 10 min on the pipetting station deck. The DNA-transfection reagent complexes were then added to plates containing cells. To facilitate the screen, 10 μL of DNA-transfection reagent complexes were added in duplicates to the top 4 and bottom 4 rows, resulting in two identical 48-well arrays per plate. Plates with transfected cells were incubated for 18–20 h at 37 °C/5% CO2. A screen of each tracer across the entire library using two different concentrations requires duplicate plates of transfected cells. Depending on the number of tracers being screened, transfections can be scaled up using the same ratios. The next day, for each tracer, four 20× screening solutions in tracer dilution buffer (Promega) were prepared: two duplicates at final concentration of 20 μM and two duplicates at a final concentration of 2 μM. A competing unmodified compound was added to one of each duplicate at a final concentration of 400 μM. The four resulting solutions were diluted 4-fold in Opti-MEM without serum or phenol red to generate 5× solutions (5 µM and 0.5 µM tracer +/− 100 μM competing compound). To screen the library, a BioTek MultiFlo FX liquid dispenser was used to dispense 22.5 µL of tracer solution to the top 4 rows and 22.5 µL tracer + competing compound solution to the 4 bottom rows. Plates were briefly mixed on an orbital shaker and incubated for 1.5 h at room temperature. […]

| Compound | NanoBRET Fold Response (F2RL1, tracer 0.1μM) | NanoBRET Fold Response (F2RL1, tracer 1μM) | also measured |
| --- | --- | --- | --- |
| CCOC(=O)c1cc(C#N)c(N2CCC(C(=O)NS(=O)(=O)Cc3ccccc3/C=C/C(=O)NCCNC(=O)CCc3ccc4n3[B-](F)(F)[N+]3=C(c5ccc[nH]5)C=CC3=C4)CC2)nc1C [AZD1283-1-NB590] | – | – | NanoBRET Fold Response (F2RL1, 0.1μM): 1.06; NanoBRET Fold Response (F2RL1, 1μM): 1.06 |
| N#CN=C(NCCCOc1cccc(CN2CCCCC2)c1)NCCNC(=O)CCOCCOCCOCCOCCNC(=O)CCc1ccc2n1[B-](F)(F)[N+]1=C(c3ccc[nH]3)C=CC1=C2 [Aminopotentidine-2-NB590] | 1.03 | 0.99 | – |
| CN(C)CCC=C1c2ccccc2CCc2ccc(C(=O)NCCNC(=O)CCOCCOCCOCCOCCNC(=O)CCc3ccc4n3[B-](F)(F)[N+]3=C(c5ccc[nH]5)C=CC3=C4)cc21 [Amitriptyline-a-2-NB590] | – | – | NanoBRET Fold Response (tracer at 0.1μM): 1.01; NanoBRET Fold Response (tracer at 1μM): 1.07 |
| CN(C)CCC=C1c2ccccc2CCc2ccc(C(=O)NCCNC(=O)CCOCCOCCOCCOCCNC(=O)CCc3ccc4n3[B-](F)(F)[N+]3=C(c5ccc[nH]5)C=CC3=C4)cc21 [Amitriptyline-b-2-NB590] | – | – | NanoBRET Fold Response (tracer at 0.1μM, listed as amitriptyline-b-2-NB590): 1.10; NanoBRET Fold Response (tracer at 1μM, listed as amitriptyline-b-2-NB590): 1.00 |
| COc1ccc2c(n1)c(CCNC(C)=O)cn2CCNC(=O)CCc1ccc2n1[B-](F)(F)[N+]1=C(c3ccc[nH]3)C=CC1=C2 [Azamelatonin-1-NB590] | – | – | NanoBRET Fold Response (0.1μM tracer): 1.21; NanoBRET Fold Response (1μM tracer): 0.93 |
| COc1ccc2[nH]c(-c3ccc(CNC(=O)CCOCCOCCOCCOCCNC(=O)CCc4ccc5n4[B-](F)(F)[N+]4=C(c6ccc[nH]6)C=CC4=C5)cc3)c(CCNC(C)=O)c2n1 [AzomelatoninICO9-2-NB590] | – | – | NanoBRET Fold Response (0.1μM tracer): 0.95; NanoBRET Fold Response (1μM tracer): 0.83 |
| O=C(CCOCCOCCOCCOCCNC(=O)CCc1ccc2n1[B-](F)(F)[N+]1=C(c3ccc[nH]3)C=CC1=C2)NCCCN1CCN(C2=Nc3cc(Cl)ccc3Nc3ccccc32)CC1 [Clozapine-a-2-NB590] | – | – | NanoBRET Fold Response (F2RL1, 0.1μM tracer): 0.89; NanoBRET Fold Response (F2RL1, 1μM tracer): 1.16 |
| CN1CCN(C2=Nc3cc(Cl)ccc3Nc3ccc(CNC(=O)CCOCCOCCOCCOCCNC(=O)CCc4ccc5n4[B-](F)(F)[N+]4=C(c6ccc[nH]6)C=CC4=C5)cc32)CC1 [Clozapine-b-2-NB590] | – | – | NanoBRET Fold Response (F2RL1, 0.1μM tracer): 1.00; NanoBRET Fold Response (F2RL1, 1μM tracer): 1.06 |
| CN1CCN(C2=Nc3cc(Cl)ccc3N(CC(=O)NCCOCCOCCOCCOCCNC(=O)CCc3ccc4n3[B-](F)(F)[N+]3=C(c5ccc[nH]5)C=CC3=C4)c3ccccc32)CC1 [Clozapine-c-2-NB590] | – | – | NanoBRET Fold Response (F2RL1, 0.1μM tracer): 0.97; NanoBRET Fold Response (F2RL1, 1μM tracer): 1.00 |
| O=C(CCOCCOCCOCCOCCNC(=O)CCc1ccc2n1[B-](F)(F)[N+]1=C(c3ccc[nH]3)C=CC1=C2)NCCCN1CCN(C2=Nc3ccccc3Oc3ccc(Cl)cc32)CC1 [Loxapine-a-2-NB590] | 1.12 | 1.14 | – |
| COc1ccccc1N1CCN(CCCCN2C(=O)c3ccc(CNC(=O)CCOCCOCCOCCOCCNC(=O)CCc4ccc5n4[B-](F)(F)[N+]4=C(c6ccc[nH]6)C=CC4=C5)cc3C2=O)CC1 [NAN-190-2-NB590] | 0.96 | 0.98 | – |
| COc1ccccc1N1CCN(CCCCN2C(=O)c3ccc(CNC(=O)CCOCCNC(=O)c4ccc(CNC(=O)CCc5ccc6n5[B-](F)(F)[N+]5=C(c7ccc[nH]7)C=CC5=C6)cc4)cc3C2=O)CC1 [NAN-190-3-NB590] | 0.96 | 1.08 | – |
| O=C(CCc1ccc2n1[B-](F)(F)[N+]1=C(c3ccc[nH]3)C=CC1=C2)NCc1ccc(C(=O)NCCOCCC(=O)N[C@@H]2CC[C@@]3(O)[C@H]4Cc5ccc(O)c6c5[C@@]3(CCN4CC3CC3)[C@H]2O6)cc1 [Naltrexone-3-NB590] | 0.79 | 0.91 | – |
| Cc1cc2c(s1)Nc1ccccc1N=C2N1CCN(CCCNC(=O)CCOCCOCCOCCOCCNC(=O)CCc2ccc3n2[B-](F)(F)[N+]2=C(c4ccc[nH]4)C=CC2=C3)CC1 [Olanzapine-a-2-NB590] | 1.04 | 0.96 | – |
| O=C(CCc1ccc2n1[B-](F)(F)[N+]1=C(c3ccc[nH]3)C=CC1=C2)NCc1ccc(C(=O)NCCOCCOCCNCC(O)COc2cccc3ccccc23)cc1 (stereo not shown) [Propranolol-3-NB590] | – | – | NanoBRET Fold Response (F2RL1, 0.1μM): 1.05; NanoBRET Fold Response (F2RL1, 1μM): 1.07 |
| O=C(CCc1ccc2n1[B-](F)(F)[N+]1=C(c3ccc[nH]3)C=CC1=C2)NCCOCCOCCNC(=O)OCCOCCN1CCN(C2=Nc3ccccc3Sc3ccccc32)CC1 [Quetiapine-a-2-NB590] | 0.88 | 0.71 | – |
| Cc1nc2n(c(=O)c1CCN1CCC(c3noc4cc(F)ccc34)CC1)CCCC2OC(=O)NCCOCCOCCOCCOCCNC(=O)CCc1ccc2n1[B-](F)(F)[N+]1=C(c3ccc[nH]3)C=CC1=C2 (stereo not shown) [Risperidone-2-NB590] | 1.00 | 0.94 | – |
| CC(C)N(CC[C@H](c1ccccc1)c1cc(CCNC(=O)CCOCCOCCOCCOCCNC(=O)CCc2ccc3n2[B-](F)(F)[N+]2=C(c4ccc[nH]4)C=CC2=C3)ccc1O)C(C)C [Tolterodine-2-NB590] | 1.07 | 1.03 | – |
| CC(C)N(CC[C@H](c1ccccc1)c1cc(CCNC(=O)c2ccc(CNC(=O)CCc3ccc4n3[B-](F)(F)[N+]3=C(c5ccc[nH]5)C=CC3=C4)cc2)ccc1O)C(C)C [Tolterodine-BZ-NB590] | 0.97 | 0.98 | – |
| CCCn1c(=O)c2[nH]c(-c3ccc(OCC(=O)NCCNC(=O)CCOCCNC(=O)c4ccc(CNC(=O)CCc5ccc6n5[B-](F)(F)[N+]5=C(c7ccc[nH]7)C=CC5=C6)cc4)cc3)nc2n(CCC)c1=O [XAC-3-NB590] | 1.04 | 0.97 | – |
